Converted amounts (≈) assume the structure as drawn. Where two headings read alike, the source gives them in different places.
Legend:
[1] = system: C. neoformans ATCC 208821; assay: MIC against C. neoformans ATCC 208821, CO-ADD; format: cell-based; settings: Cryptococcus neoformans, ATCC208821; C. neoformans ATCC 208821; mean of two experiments; read-out: MIC C. n
Description: (§1) Antimicrobial evaluation of the pure compounds against A. baumannii ATCC 19606, Candida albicans ATCC 90028, Cryptococcus neoformans ATCC 208821, E. coli ATCC 25922, K. pneumoniae ATCC 700603, P. aeruginosa ATCC 27853, and S. aureus ATCC 43300 (MRSA) was undertaken at the Community for Open Antimicrobial Drug Discovery at The University of Queensland (St. Lucia, Queensland, Australia) according to standard protocols as previously described.

[2] = system: K. pneumoniae ATCC 700603; assay: MIC against K. pneumoniae ATCC 700603, CO-ADD; format: cell-based; settings: Klebsiella pneumoniae, ATCC700603; K. pneumoniae ATCC 700603; mean of two experiments; read-out: MIC K. p
Description: as §1

[3] = Cytotoxicity on HEK293 human embryonic kidney cells
Description: (§2) All compounds were also evaluated for their cytotoxicity against human embryonic kidney cells (HEK-293) and any haemolytic activity against human red blood cells.

human red blood cells [4] = assay: Haemolytic activity on human red blood cells; settings: concentration of compound at 10% haemolytic activity on human red blood cells; mean of two experiments
C. albicans ATCC 90028 = assay: MIC against C. albicans ATCC 90028, CO-ADD; format: cell-based, Candida albicans; settings: for MIC: Candida albicans, ATCC90028, C. albicans ATCC 90028, mean of two experiments, read-out: MIC C. a
Description: as §1

human red blood cells [5] = system: human red blood cells
E. coli ATCC 25922 = assay: MIC against E. coli ATCC 25922, CO-ADD; format: cell-based; settings: Escherichia coli, ATCC25922; E. coli ATCC 25922; mean of two experiments; read-out: MIC E. c
Description: as §1

P. aeruginosa ATCC 27853 = assay: MIC against P. aeruginosa ATCC 27853, CO-ADD; format: cell-based; settings: Pseudomonas aeruginosa, ATCC27853; P. aeruginosa ATCC 27853; mean of two experiments; read-out: MIC P. a
Description: as §1

A. baumannii ATCC 19606 = assay: MIC against A. baumannii ATCC 19606, CO-ADD; format: cell-based; settings: Acinetobacter baumannii, ATCC19606; A. baumanii ATCC 19606; mean of two experiments; read-out: MIC A. b
Description: as §1

[6] = system: S. aureus ATCC 43300 (MRSA); assay: MIC against S. aureus ATCC 43300 (MRSA), CO-ADD; format: cell-based, Staphylococcus aureus; settings: for MIC: Staphylococcus aureus, read-out: MIC S. a
Description: as §1

E. coli = system: E. coli; set-up: method as in PMID 4629229; settings: disk diffusion assays; cited from earlier work
Aspergillus fumigatus = system: Aspergillus fumigatus; set-up: method as in PMID 4629229, PMID 9797310, PMID 19801865; settings: cited from earlier work
Microsporum gypseum = system: Microsporum gypseum; set-up: method as in PMID 4629229, PMID 9797310, PMID 19801865; settings: cited from earlier work
Bacillus subtilis = system: Bacillus subtilis; set-up: method as in PMID 4629229; settings: disk diffusion assays; cited from earlier work
in vitro = settings: human
Description: as §2

Aspergillus flavus = system: Aspergillus flavus; set-up: method as in PMID 4629229, PMID 9797310, PMID 19801865; settings: cited from earlier work
M. marinum BSG101 = assay: Antimycobacterial bioluminescence assay of pure compounds, M. marinum; settings: Mycobacterium marinum, BSG101, 72 h
Description: Antimicrobial evaluation against M. abscessus and M. marinum was undertaken using in-house assays with the bioluminescent derivatives M. abscessus BSG301 [63] and M. marinum BSG101 [64]. […] Specifically, mycobacterial cultures were grown with shaking at 200 rpm in Middlebrook 7H9 broth (Fort Richard, Auckland, New Zealand) supplemented with 10% Middlebrook ADC enrichment media (Fort Richard, Auckland, New Zealand), 0.4% glycerol (Sigma-Aldrich, St. Louis, MO, USA), and 0.05% tyloxapol (Sigma-Aldrich, St. Louis, MO, USA). M. abscessus was grown at 37 °C and M. marinum at 28 °C. Cultures were grown until they reached the stationary phase (approximately 3–5 days for M. abscessus BSG301 and 7–10 days for M. marinum BSG101) and then diluted in MHB supplemented with 10% Middlebrook ADC enrichment media and 0.05% tyloxapol to give an optical density at 600 nm (OD600) of 0.001, which is the equivalent of ~10^6 bacteria per mL. Pure compounds were dissolved in DMSO and added to the wells of a black 96-well plate (Nunc, Thermo Scientific, Waltham, MA, USA) at doubling dilutions with a maximum concentration of 128 mg/mL. […] Bacterial luminescence was measured at regular intervals over 72 h using a Victor X-3 luminescence plate reader with an integration time of 1 s. […]

[7] = S. aureus ATCC 43300 (MRSA), mean of two experiments

SMILES | MIC [1] [µM] | MIC [2] [µM] | CC50 [3] [µM] | HC10 (human red blood cells [4]) [µM] | MIC (C. albicans ATCC 90028) [µM] | MIC (E. coli ATCC 25922) [µM] | MIC (P. aeruginosa ATCC 27853) [µM] | MIC (A. baumannii ATCC 19606) [µM] | MIC [6, 7] [µM] | activity against E. coli (E. coli) | antifungal activity against C. albicans (C. albicans ATCC 90028) | further results
COc1c(CC(C)O)c2c3c(CC(C)O)c(OC)c(=O)c4c(O)cc5c(c6c(cc(O)c(c1=O)c62)OCO5)c43 (stereo not drawn) [compound 7, cercosporin] | > 60 | > 60 | 25.3 | >60 | > 60 | > 60 | > 60 | > 60 | ≤ 0.47 |  |  | haemolytic activity (human red blood cells [5]): not haemolytic; activity against MRSA ([6]; MRSA): potent activity
C[C@H]1CCC/C=C/[C@@H]2C[C@H](O)C[C@H]2[C@H](O)/C=C/C(=O)O1 [compound 8, brefeldin A] | > 114 | > 114 | 0.89 | >114 | 57 (≈ 16 µg/mL) | > 114 | > 114 | > 114 | > 114 | none of the compounds were active | moderate antifungal activity | activity against Aspergillus fumigatus (Aspergillus fumigatus): activity; activity against Microsporum gypseum (Microsporum gypseum): activity
C[C@@H]1C[C@H]2O[C@@H]2/C=C\C=C\C(=O)Cc2c(Cl)c(O)cc(O)c2C(=O)O1 [compound 10, radicicol] | > 88 | > 88 |  |  | 44 (≈ 16.1 µg/mL) | > 88 | > 88 | > 88 | > 88 | none of the compounds were active | moderate antifungal activity | activity against B. subtilis (Bacillus subtilis): active; CC50 (in vitro): > 88 µM; activity against Aspergillus flavus (Aspergillus flavus): activity; MIC (M. marinum BSG101): 64 µg/mL (≈ 175 µM); HC10 (human red blood cells [5]; human): >88 µM
OC(Cn1cncn1)(Cn1cncn1)c1ccc(F)cc1F [fluconazole, reference compound] | 26 (≈ 7.96 µg/mL) |  |  |  | 0.4 (≈ 0.123 µg/mL) |  |  |  |  |  |  | 
CC/C(=C(\c1ccccc1)c1ccc(OCCN(C)C)cc1)c1ccccc1 [tamoxifen, reference compound] |  |  |  |  |  |  |  |  |  |  |  | IC50 ([3]; HEK-293 human embryonic kidney cells): 24 µM
CN[C@H](CC(C)C)C(=O)N[C@H]1C(=O)N[C@@H](CC(N)=O)C(=O)N[C@H]2C(=O)N[C@H]3C(=O)N[C@H](C(=O)N[C@H](C(=O)O)c4cc(O)cc(O)c4-c4cc3ccc4O)[C@H](O)c3ccc(c(Cl)c3)Oc3cc2cc(c3O[C@@H]2O[C@H](CO)[C@@H](O)[C@H](O)[C@H]2O[C@H]2C[C@](C)(N)[C@H](O)[C@H](C)O2)Oc2ccc(cc2Cl)[C@H]1O [vancomycin, reference compound] |  |  |  |  |  |  |  |  |  |  |  | MIC [6]: 0.7 µM (≈ 1.01 µg/mL)

From article PMC9920077, “Antimicrobial Natural Products from Plant Pathogenic Fungi” (Molecules, 2023)
